{"source": "paper PMC10630888", "about": "“Nuclear ERK1/2 signaling potentiation enhances neuroprotection and cognition via Importinα1/KPNA2” (EMBO Molecular Medicine, 2023)", "key": {"pERK1/2": {"test_system": "pERK1/2", "test": "pERK1/2 in dorsal striatum, MPTP model", "assay_type": "in vivo, mouse", "procedure": "Immunohistochemistry was performed as described in Papale et al ([2016]). Briefly, 1 h after blocking in 5% normal goat serum and 0.1% Triton X‐100 solution, free‐floating sections were incubated overnight at 4°C with one of the following primary antibodies: anti‐phospho‐p44/42 MAP kinase (Thr202/Tyr204) (1:200, Cell Signaling Technology #9101), anti‐phospho–Elk‐1 (Ser383) (1:100, Cell Signaling #9181), anti‐phospho‐Kv4.2 (Thr607)‐R (1:100, Santa Cruz sc22254‐R), anti‐phospho‐MSK‐1 (1:100 Cell Signaling Technology #9595), anti‐phospho‐MEK1/2 (Ser218/222) (1:100, sc‐7995 Santa Cruz Biotechnology), c‐Fos (1:100, sc‐52 Santa Cruz Biotechnology), tyrosine Hydroxylase (monoclonal 1:1,000, Sigma Aldrich, Italy) and anti‐DARPP‐32 (H3) (1:100, Santa Cruz Biotechnology, #sc‐271111) overnight at 4°C. […]\nFor in vivo immunohistochemistry experiments, images were acquired from the dorsal striatum using a Leica DM IRB microscope under a 20× objective. The number of p‐ERK, p‐MSK‐1, p‐ELK, p‐MEK‐1, p‐VG K+, c‐Fos, and DARPP‐32 positive cells was counted in 2–3 consecutive sections per mouse, bilaterally and averaged across the sections using the ImageJ software by a blind investigator to the condition. Estimation of nigral cell loss was assessed by quantifying the number of TH‐immunopositive neurons of the SNc in 360 μm‐spaced sections for each animal. […]"}, "pERK": {"test_system": "pERK", "test": "pERK in striatum of HdhQ111/+ mice treated with RB5", "assay_type": "in vivo, mouse", "settings": "for pERK in striatum (Fig 5 panel d): individual animals", "procedure": "Immunohistochemistry was performed as described in Papale et al ([2016]). Briefly, 1 h after blocking in 5% normal goat serum and 0.1% Triton X‐100 solution, free‐floating sections were incubated overnight at 4°C with one of the following primary antibodies: anti‐phospho‐p44/42 MAP kinase (Thr202/Tyr204) (1:200, Cell Signaling Technology #9101), anti‐phospho–Elk‐1 (Ser383) (1:100, Cell Signaling #9181), anti‐phospho‐Kv4.2 (Thr607)‐R (1:100, Santa Cruz sc22254‐R), anti‐phospho‐MSK‐1 (1:100 Cell Signaling Technology #9595), anti‐phospho‐MEK1/2 (Ser218/222) (1:100, sc‐7995 Santa Cruz Biotechnology), c‐Fos (1:100, sc‐52 Santa Cruz Biotechnology), tyrosine Hydroxylase (monoclonal 1:1,000, Sigma Aldrich, Italy) and anti‐DARPP‐32 (H3) (1:100, Santa Cruz Biotechnology, #sc‐271111) overnight at 4°C. Sections were then incubated with biotinylated goat anti‐rabbit IgG (1:200, Vector Laboratories) or biotinylated goat anti‐mouse (1:200, Vector Laboratories) for 2 h. The classic avidin‐peroxidase complex (ABC, Vector, UK) protocol was applied, using 3,3′‐diaminobenzidine (DAB, Sigma) as a chromogen.\nFor in vivo immunohistochemistry experiments, images were acquired from the dorsal striatum using a Leica DM IRB microscope under a 20× objective. The number of p‐ERK, p‐MSK‐1, p‐ELK, p‐MEK‐1, p‐VG K+, c‐Fos, and DARPP‐32 positive cells was counted in 2–3 consecutive sections per mouse, bilaterally and averaged across the sections using the ImageJ software by a blind investigator to the condition. Estimation of nigral cell loss was assessed by quantifying the number of TH‐immunopositive neurons of the SNc in 360 μm‐spaced sections for each animal."}, "[1]": {"target": "T1, ERK1/ERK2-KPNA5 interaction (Homo sapiens, UniProt O15131)", "T1 construct": "host or cells: HEK293", "T1 sequence (O15131 whole entry)": "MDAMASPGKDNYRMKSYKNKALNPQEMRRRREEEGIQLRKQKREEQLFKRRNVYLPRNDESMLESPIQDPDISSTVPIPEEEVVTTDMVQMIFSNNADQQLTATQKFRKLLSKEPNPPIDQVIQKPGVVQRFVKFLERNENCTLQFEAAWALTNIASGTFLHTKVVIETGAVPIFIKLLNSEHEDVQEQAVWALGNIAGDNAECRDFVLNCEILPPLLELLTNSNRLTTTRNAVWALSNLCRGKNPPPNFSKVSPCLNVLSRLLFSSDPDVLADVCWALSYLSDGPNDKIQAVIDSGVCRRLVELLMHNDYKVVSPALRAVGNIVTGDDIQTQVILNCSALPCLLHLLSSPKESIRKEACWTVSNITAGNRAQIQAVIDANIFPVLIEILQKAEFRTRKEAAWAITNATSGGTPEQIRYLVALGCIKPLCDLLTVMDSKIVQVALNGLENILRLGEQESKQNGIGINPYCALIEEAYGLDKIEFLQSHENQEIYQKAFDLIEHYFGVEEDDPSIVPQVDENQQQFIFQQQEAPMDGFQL", "test": "Proximity ligation assay, ERK1 or ERK2 with KPNA5 in HEK293 cells", "assay_type": "binding", "settings": "HEK293 cells pretreated with RB5 50 μM for 1 h", "procedure": "1.5 × 10^6 HEK293 cells were seeded onto coverslips in 60 mm dishes. 24 h later, transfection was carried out using calcium phosphate method. 0.5 μg of pCMVTNT‐T7‐KPNA1 (Addgene, #26677), 0.5 μg of pCMVTNT‐T7‐KPNA2 (Addgene, #26678), 0.5 μg of pCMVTNT‐T7‐KPNA3 (Addgene, #26679), 0.5 μg of pCMVTNT‐T7‐KPNA4 (Addgene, #26680), 0.5 μg of pCMVTNT‐T7‐KPNA5 (Addgene, #26681), 1.5 μg of pcDNA3.1+/C‐(K)‐DYK‐KPNA6 (Genscript, #OHu29951D), 0.5 μg of pCMVTNT‐T7‐KPNA7 (Addgene, #26683), 5 μg of pcDNA3.1 +/C‐(K)‐DYK‐IPO7 (Genscript, #OHu11630), 0.5 μg pCMV5‐3HA‐RanBP5 (MRC PPU, University of Dundee, #DU7262), 0.5 μg pCMV5‐3HA‐ KPNB1 (MRC PPU, University of Dundee, #DU5332) were mixed with one of the following plasmids: 0.01 μg of 277.pCCLsin.PPT.hPGK.GFP.PRE, 0.25 μg of 277.pCCLsin.PPT.hPGK.ERK1‐GFP.PRE or 0.25 μg of 277.pCCLsin.PPT.hPGK.ERK2‐GFP.PRE. After approximately 16 h, cell culture medium was replaced with fresh medium. On the following day, cells were washed three times in PBS and fixed in 4% PFA for 15 min. […]\nThe proximity ligation assay was carried out following the manufacturer's instructions. […] The number of GFP‐positive cells, DAPI‐stained cells, and red dots was counted manually using Fiji‐ImageJ software."}}, "note": "Values joined by “and” are separate entries in the source; they are usually repeats but may differ in a detail not shown here. Identical values can stand only once."}
{"sequence": "GRKKRRQRRRPPQGGGGGEPRRTEGVGPGVPGEVEMVKGQPFDV [RB5, six D-amino acids, acetylated N-terminus]", "values": [{"measurement": "pERK1/2 in dorsal striatum of MPTP-treated animals", "setting": "pERK1/2; MPTP 20 mg/kg i.p. and RB5 20 mg/kg i.p. for 4 days", "result": "further enhanced"}, {"measurement": "pERK1/2 in dorsal striatum (Fig 5 panel i)", "setting": "pERK1/2; MPTP model, individual animals", "result": "320.238 and 468.254 and 523.81 and 295.238 and 784.921 and 378.571 and 564.683 and 633.333 and 362.302 and 348.413 and 268.452 and 448.016 and 342.46 and 421.429"}, {"measurement": "ERK activity (pERK) in striatum", "setting": "pERK; 10 month-old HdhQ111/+ mice, 20 mg/kg i.p. for 8 days", "result": "enhancing ERK activity"}, {"measurement": "pERK in striatum (Fig 5 panel d)", "setting": "pERK; HdhQ111/+ mice", "result": "485.6 and 573.909 and 510.978 and 613 and 540.374 and 579.569 and 517.606 and 519.5 and 515.6"}, {"measurement": "pERK in striatum (Fig 5 panel d)", "setting": "pERK; WT mice", "result": "416.7 and 470.92 and 371.49 and 542.1 and 453.63 and 361.4 and 405.17 and 381.6"}, {"measurement": "ERK1 or ERK2 binding to KPNA5 (PLA)", "setting": "[1]", "result": "unaffected"}]}
